In ChEMBL document CHEMBL1201862, “PubChem BioAssay data set” (2004):
One block for each compound: values may come before it. The source made the active and inactive calls.

Assays:
[1] = target: T1, Heat shock factor protein 1 (Mus musculus, UniProt P38532); test: enhancement of HSF1-driven luciferase signal – cell-based, NIH3T3, luminescence, dose retest, confirmation (AID 435004); format: functional;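 further: stress induced by proteasome inhibitor MG132 added 30 min after compound; luciferase reporter driven by HSF1 response element in NIH3T3 cells; actives raise luminescence as potentiators of the MG132 stress response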
T1 sequence (P38532 whole entry): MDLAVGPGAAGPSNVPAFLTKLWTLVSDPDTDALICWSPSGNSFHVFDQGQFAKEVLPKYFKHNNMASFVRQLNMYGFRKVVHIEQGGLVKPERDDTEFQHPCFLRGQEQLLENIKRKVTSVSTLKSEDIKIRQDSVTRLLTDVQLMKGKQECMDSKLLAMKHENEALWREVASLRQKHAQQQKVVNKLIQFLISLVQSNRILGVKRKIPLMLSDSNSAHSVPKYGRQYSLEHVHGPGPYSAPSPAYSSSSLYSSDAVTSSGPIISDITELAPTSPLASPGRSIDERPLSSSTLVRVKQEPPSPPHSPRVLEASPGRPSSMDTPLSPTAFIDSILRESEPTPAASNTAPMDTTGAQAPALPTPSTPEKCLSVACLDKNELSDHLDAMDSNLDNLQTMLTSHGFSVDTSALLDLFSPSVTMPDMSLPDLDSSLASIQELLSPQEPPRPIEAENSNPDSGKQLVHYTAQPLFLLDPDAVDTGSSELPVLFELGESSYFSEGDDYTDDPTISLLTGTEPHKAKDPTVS

[2] = target: DNA repair and recombination protein RAD54-like (Homo sapiens, UniProt Q92698); test: RAD54 Holliday junction migration blockers – biochemical, fluorescence, cherry-picked samples, dose series, confirmation (AID 651657); format: functional
Chain of DNA repair and recombination protein RAD54-like (Q92698 whole entry): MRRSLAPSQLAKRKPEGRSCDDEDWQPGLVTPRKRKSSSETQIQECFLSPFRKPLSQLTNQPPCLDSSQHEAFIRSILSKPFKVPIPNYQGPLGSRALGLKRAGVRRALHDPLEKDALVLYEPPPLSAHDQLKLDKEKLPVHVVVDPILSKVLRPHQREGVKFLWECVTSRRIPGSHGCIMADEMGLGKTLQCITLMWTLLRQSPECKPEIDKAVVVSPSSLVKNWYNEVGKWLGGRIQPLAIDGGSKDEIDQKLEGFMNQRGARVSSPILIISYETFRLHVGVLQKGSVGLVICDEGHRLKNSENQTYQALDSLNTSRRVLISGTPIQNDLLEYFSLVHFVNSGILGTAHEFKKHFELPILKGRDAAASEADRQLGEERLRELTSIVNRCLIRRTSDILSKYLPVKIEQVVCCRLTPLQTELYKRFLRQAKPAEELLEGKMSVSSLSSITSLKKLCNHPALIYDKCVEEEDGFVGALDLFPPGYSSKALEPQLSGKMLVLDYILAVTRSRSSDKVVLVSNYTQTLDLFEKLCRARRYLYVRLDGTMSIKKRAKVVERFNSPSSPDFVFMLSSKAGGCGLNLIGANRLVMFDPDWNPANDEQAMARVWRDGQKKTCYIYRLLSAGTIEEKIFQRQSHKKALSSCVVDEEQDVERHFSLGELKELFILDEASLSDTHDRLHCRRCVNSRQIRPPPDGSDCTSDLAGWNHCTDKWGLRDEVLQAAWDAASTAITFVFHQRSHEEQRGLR

Hexokinase HKDC1 = target: T2, Hexokinase HKDC1 (Homo sapiens, UniProt Q2TB90); test: activation of HKDC1 glucose phosphorylation – biochemical, W721R variant, dose response (AID 504730); format: functional
T2 sequence (Q2TB90 whole entry): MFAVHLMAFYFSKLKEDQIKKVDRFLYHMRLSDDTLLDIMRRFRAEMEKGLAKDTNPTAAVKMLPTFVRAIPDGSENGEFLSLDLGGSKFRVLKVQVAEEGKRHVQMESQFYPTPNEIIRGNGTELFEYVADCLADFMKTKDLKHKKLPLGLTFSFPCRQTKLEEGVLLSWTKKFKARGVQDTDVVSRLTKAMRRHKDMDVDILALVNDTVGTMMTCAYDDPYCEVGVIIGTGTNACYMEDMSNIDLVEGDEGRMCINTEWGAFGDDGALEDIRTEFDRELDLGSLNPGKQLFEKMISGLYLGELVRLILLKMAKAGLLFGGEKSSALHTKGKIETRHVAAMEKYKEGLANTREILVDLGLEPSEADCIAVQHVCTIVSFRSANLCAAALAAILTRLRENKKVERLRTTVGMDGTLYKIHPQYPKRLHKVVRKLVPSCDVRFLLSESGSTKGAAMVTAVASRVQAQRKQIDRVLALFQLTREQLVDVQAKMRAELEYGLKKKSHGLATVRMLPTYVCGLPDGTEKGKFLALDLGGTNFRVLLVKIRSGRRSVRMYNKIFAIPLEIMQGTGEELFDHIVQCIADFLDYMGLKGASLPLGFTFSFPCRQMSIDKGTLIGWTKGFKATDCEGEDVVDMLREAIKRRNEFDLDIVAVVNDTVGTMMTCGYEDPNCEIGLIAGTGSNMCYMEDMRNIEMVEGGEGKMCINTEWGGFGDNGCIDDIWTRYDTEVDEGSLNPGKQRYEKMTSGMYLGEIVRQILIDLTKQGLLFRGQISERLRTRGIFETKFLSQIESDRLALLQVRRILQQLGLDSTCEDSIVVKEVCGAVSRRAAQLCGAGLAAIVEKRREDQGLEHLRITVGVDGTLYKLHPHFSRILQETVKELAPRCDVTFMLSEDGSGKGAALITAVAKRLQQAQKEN

Hexokinase-1 = target: T3, Hexokinase-1 (Homo sapiens, UniProt P19367); test: HK1 enzyme activation by HKDC1 hits – biochemical, selectivity assay for HKDC1 activator project, dose response (AID 504762); format: functional
T3 sequence (P19367 whole entry): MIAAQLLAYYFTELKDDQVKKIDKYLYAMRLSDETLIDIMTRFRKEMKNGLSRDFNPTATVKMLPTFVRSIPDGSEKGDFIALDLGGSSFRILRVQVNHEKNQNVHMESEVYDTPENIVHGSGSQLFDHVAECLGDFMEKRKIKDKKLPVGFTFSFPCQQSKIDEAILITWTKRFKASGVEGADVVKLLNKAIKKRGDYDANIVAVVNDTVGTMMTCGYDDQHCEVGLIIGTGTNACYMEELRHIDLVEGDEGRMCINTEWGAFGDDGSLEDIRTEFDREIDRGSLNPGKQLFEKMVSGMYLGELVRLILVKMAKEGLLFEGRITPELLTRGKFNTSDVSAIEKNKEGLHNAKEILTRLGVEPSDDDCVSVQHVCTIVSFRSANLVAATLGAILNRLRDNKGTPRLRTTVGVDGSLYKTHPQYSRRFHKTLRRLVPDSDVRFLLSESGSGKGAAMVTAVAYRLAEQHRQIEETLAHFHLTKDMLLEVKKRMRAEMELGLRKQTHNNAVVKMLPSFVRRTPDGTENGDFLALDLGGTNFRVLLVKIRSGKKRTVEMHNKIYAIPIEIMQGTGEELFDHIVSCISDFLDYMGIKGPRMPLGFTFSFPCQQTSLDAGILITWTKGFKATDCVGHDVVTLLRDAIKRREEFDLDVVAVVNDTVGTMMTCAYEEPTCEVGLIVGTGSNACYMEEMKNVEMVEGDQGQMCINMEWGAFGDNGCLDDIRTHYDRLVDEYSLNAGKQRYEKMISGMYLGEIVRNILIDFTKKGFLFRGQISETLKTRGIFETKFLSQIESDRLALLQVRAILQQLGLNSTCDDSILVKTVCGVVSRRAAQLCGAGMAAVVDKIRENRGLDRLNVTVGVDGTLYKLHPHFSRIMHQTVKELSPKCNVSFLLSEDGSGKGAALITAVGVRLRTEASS

[3] = target: Tyrosine-protein phosphatase non-receptor type 11 (Homo sapiens, UniProt Q06124); test: PTPN11 enzyme inhibitors – biochemical, selectivity assay for STEP inhibitor project, dose response (AID 602367); format: functional; conditions: read-out: IC50_Mean
[4] = target: Tyrosine-protein phosphatase non-receptor type 5 (Homo sapiens, UniProt P54829); test: PTPN5 enzyme inhibition – biochemical, fluorescence intensity, uHTS hits, confirmation (AID 602372); format: functional; conditions: read-out: IC50_Mean
Chain of Tyrosine-protein phosphatase non-receptor type 5 (P54829 whole entry): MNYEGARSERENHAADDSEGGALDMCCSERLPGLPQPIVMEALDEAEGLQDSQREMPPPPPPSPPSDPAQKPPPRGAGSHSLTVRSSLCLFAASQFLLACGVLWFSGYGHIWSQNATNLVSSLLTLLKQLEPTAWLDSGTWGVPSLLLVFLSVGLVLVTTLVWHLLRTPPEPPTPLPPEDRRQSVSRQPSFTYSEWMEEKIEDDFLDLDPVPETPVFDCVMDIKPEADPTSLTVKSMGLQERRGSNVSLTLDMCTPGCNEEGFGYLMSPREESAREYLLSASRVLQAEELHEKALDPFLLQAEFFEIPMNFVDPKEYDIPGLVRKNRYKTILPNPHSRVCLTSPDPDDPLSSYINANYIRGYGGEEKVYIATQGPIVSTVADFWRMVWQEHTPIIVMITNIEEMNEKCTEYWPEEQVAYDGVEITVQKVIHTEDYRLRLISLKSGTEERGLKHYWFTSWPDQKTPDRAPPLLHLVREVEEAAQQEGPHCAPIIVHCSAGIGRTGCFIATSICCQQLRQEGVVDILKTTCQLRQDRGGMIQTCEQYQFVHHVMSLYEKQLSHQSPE

[5] = target: Dual specificity protein phosphatase 3 (Homo sapiens, UniProt P51452); test: VHR phosphatase inhibition, dose response, selectivity assay for STEP inhibitor project, biochemical (AID 602374); format: functional; conditions: read-out: IC50_Mean
Chain of Dual specificity protein phosphatase 3 (P51452 whole entry): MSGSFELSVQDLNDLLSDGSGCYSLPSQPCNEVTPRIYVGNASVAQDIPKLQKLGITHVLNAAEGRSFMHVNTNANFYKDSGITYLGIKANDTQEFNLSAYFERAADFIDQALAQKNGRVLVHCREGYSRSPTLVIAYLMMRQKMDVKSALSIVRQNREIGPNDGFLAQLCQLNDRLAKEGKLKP

[6] = target: Nuclear receptor subfamily 5 group A member 2 (Homo sapiens, UniProt O00482); format: functional, cell-based;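 further: HEK293T cells transfected with LRH-1 and a StAR promoter luciferase reporter; potency for inhibitors that lower LRH-1 driven reporter light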
Chain of Nuclear receptor subfamily 5 group A member 2 (O00482 whole entry): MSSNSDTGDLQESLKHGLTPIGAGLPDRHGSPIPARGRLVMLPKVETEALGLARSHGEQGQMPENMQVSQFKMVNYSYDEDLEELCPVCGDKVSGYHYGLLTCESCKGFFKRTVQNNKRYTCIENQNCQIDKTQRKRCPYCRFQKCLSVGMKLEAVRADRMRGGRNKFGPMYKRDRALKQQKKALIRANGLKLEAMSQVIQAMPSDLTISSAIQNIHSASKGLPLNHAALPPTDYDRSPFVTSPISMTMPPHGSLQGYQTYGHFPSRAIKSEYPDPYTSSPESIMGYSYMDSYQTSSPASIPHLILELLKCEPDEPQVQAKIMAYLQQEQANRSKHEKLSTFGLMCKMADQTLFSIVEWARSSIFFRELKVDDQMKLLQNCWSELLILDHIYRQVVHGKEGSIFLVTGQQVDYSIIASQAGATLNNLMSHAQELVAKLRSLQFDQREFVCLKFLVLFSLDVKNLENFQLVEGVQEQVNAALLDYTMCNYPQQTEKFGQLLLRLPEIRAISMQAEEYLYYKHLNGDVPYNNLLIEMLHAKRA

Steroidogenic factor 1 = Steroidogenic factor 1 (Homo sapiens, UniProt Q13285); test: Counterscreen for inverse agonists of the liver receptor homolog-1 (LRH-1; NR5A2): Luminescence-based cell-based high throughput dose response assay to identify inverse agonists of the Steroidogenic Factor 1 Nuclear Receptor (SF1; NR5A1).; format: functional
Chain of Steroidogenic factor 1 (Q13285 whole entry): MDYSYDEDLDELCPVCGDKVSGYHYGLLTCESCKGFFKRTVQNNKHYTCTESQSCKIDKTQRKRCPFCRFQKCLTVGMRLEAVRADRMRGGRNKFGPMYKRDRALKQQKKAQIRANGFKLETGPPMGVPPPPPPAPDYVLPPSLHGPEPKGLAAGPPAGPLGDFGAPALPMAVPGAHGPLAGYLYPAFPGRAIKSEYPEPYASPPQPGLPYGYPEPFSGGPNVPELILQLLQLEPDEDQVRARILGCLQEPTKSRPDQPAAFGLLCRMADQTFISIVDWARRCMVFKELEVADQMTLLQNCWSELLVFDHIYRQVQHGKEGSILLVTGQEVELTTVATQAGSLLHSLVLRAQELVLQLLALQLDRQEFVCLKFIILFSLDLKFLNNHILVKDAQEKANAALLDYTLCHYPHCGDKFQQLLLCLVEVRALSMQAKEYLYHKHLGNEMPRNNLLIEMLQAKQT

[7] = nonselective StAR promoter luciferase inhibitors – cell-based, luminescence, luciferase reporter, counter-screen for LRH-1 inverse agonist project, dose response (AID 651969); format: functional
[8] = activation of miR-122 Renilla sensor silencing – cell-based, Huh7 psiCHECK-miR122, Renilla luciferase, cherry-picked, dose response (AID 651956); format: functional;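 further: huh7 hepatoma cells stably carrying a psiCHECK-2 miR-122 sensor plasmid; renilla luciferase signal reporting endogenous miR-122 activity after 48 h compound exposure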
[9] = viability loss in HEK293T cells – cell-based, cherry-picks, cytotoxicity control for HIV Vif inhibitor project, dose response (AID 652208); format: functional
[10] = inhibitors of EBV LMP1 NF-kappaB signaling – cell-based, luciferase reporter, luminescence, dry powder, set 2, dose response (AID 624376); format: functional
Paired box protein Pax-8 = Paired box protein Pax-8 (Homo sapiens, UniProt Q06710); test: PAX8 transcriptional activity inhibition in RMG-I – RMG-I cells, luciferase, cherry-pick, dose response (AID 687027); format: functional, cell-based;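 further: luciferase reporter driven by Pax8 target thyroperoxidase promoter measured by SteadyGlo luminescence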
Chain of Paired box protein Pax-8 (Q06710 whole entry): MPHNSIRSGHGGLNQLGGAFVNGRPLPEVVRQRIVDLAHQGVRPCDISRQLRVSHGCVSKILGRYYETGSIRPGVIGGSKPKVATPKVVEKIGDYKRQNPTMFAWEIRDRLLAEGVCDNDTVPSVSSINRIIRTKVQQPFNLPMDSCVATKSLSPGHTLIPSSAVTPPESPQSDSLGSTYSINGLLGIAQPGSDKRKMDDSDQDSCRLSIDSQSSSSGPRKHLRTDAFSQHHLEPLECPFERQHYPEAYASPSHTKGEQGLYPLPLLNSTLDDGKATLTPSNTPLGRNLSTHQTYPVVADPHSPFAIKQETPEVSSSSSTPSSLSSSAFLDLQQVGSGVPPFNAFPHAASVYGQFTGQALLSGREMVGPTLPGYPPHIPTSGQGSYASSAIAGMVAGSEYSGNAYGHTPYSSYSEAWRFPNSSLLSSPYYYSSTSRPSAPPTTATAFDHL

[11] = A2780 cell killing – plate reader, dry powder samples, cytotoxicity control, dose response (AID 743046); format: functional, cell-based
[12] = OVCAR-3 cell viability loss – plate reader, dry powder samples, PAX8 inhibitor project, dose response (AID 743044); format: functional, cell-based
[13] = general cell-killing toxicity readout – plate reader, dry powder samples, cytotoxicity control for PAX8 inhibitor project, dose response (AID 743021); format: functional, cell-based
Albumin = Albumin (Bos taurus, UniProt P02769); test: Counterscreen for inhibitors of T-cell receptor (TCR)-CD3 interaction: Fluorescence-based biochemical high throughput dose response assay to identify inhibitors of T-cell receptor (TCR)-CD3 interaction using a TAMRA-labeled BSA probe.; format: functional
Chain of Albumin (P02769 whole entry): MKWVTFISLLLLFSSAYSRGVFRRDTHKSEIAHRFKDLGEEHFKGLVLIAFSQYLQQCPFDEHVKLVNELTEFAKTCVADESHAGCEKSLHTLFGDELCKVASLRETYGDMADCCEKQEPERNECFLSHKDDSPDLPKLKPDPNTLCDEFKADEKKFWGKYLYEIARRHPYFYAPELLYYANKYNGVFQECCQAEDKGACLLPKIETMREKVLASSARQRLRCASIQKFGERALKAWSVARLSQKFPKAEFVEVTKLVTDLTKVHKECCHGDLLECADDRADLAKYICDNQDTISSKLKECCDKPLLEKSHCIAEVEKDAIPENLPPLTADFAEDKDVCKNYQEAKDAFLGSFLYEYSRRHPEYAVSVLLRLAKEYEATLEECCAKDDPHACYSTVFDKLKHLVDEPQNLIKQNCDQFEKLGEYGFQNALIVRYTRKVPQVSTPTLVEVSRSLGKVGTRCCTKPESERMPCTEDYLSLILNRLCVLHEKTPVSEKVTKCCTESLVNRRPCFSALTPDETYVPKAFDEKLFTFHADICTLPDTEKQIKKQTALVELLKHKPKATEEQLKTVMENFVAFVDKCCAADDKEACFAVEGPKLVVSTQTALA

[14] = target: T4, DNA repair protein RAD52 homolog (Homo sapiens, UniProt P43351); format: functional, biochemical
T4 sequence (P43351 whole entry): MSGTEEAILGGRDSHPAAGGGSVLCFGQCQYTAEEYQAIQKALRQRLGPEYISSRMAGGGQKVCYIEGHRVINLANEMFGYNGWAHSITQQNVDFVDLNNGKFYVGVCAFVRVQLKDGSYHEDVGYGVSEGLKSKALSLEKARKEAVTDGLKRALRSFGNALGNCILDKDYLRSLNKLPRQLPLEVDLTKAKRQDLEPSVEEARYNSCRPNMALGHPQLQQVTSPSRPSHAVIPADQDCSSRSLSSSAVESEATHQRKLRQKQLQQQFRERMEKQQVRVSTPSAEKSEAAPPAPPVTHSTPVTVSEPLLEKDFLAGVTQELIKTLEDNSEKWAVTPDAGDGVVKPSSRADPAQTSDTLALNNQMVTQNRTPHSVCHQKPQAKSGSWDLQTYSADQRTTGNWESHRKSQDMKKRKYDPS

EC50 [1]: 55.8 µM (active)
AC50 [2]: 32.1 µM (active)
Compound: CCOC(=O)c1c(NC(C)=O)sc2c(O)c(CN3CCN(CC)CC3)ccc12

EC50 (Hexokinase HKDC1): > 80 µM (inactive)
EC50 (Hexokinase-1): > 80 µM (inactive)
IC50 [3]: 6.06 µM (active)
IC50 [4]: > 80 µM (inactive)
IC50 [5]: 7.77 µM (active)
Compound: CC(=NNC(=S)N1CC2CCC(CC2)C1)c1cccc(C)n1

Compound: COc1ccc(Nc2nc(NCCN3CCOCC3)nc(Nc3ccc(OC)cc3)n2)cc1
IC50 [6]: 5.3 µM (active)
IC50 (Steroidogenic factor 1): 4.32 µM (active)
IC50 [7]: 12 µM (inactive)

Compound: C[C@@H]1CN([C@@H](C)CO)S(=O)(=O)c2ccc(-c3ccccc3)cc2O[C@@H]1CN(C)C(=O)c1ccc2c(c1)OCO2
AC50 [8]: 16.3 µM (active)

Compound: COc1ccc(-c2coc3c(C(=O)Nc4cccc(C(C)=O)c4)cccc23)c(C)c1
AC50 [9]: > 52 µM (inactive)

Compound: COc1cccc(S(=O)(=O)N(C)C[C@H]2Oc3cc(C4=CCCCC4)ccc3S(=O)(=O)N([C@@H](C)CO)C[C@@H]2C)c1
AbsAC35 [10]: 64.1 µM

Compound: C[C@H](CO)N1C[C@H](C)[C@H](CN(C)C(=O)[C@H](Cc2ccccc2)N(C)C)OCc2ccccc2-c2c(n(C)c3ccccc23)C1=O
AC50 (Paired box protein Pax-8): 16.4 µM (active)
AC50 [11]: 12.6 µM (active)
AC50 [12]: 45.4 µM (active)
AC50 [13]: 36.2 µM (active)

IC50 (Albumin): > 94.1 µM (inactive)
Compound: CNC(=S)N/N=C/c1cc(Br)cc(Br)c1O

AC50 [2]: 11.7 µM (active)
AC50 [14]: 11.2 µM (active)
Compound: CCOC(=O)c1cnc2ccc(OCC)cc2c1NCCCN1CCOCC1
